{"source": "patent US9089572B2", "about": "“Inhibitors of p97” (California Institute of Technology, priority 2008, dated 2015)", "key": {"HeLa cells": {"system": "HeLa cells", "test": "Accumulation of high molecular weight ubiquitin conjugates (anti-ubiquitin immunoblot), HeLa cells", "format": "cell-based", "settings": "1 h at 37° C.", "excerpt": "(§1) To evaluate whether compound 2 can target p97 activity in cells, we sought to determine whether this compound induces accumulation of high molecular weight ubiquitin conjugates, since it is known that RNAi-mediated knockdown of p97 in mammalian cells has this effect (Wojcik, C. et al. J. Cell Sci. (2004) 117, 281-292). As a positive control for this experiment, the proteasome inhibitor MG132 was used. […] The cells were then harvested, lysed, and centrifuged to generate soluble and insoluble fractions. These fractions were then immunoblotted with anti-ubiquitin antibodies to detect accumulation of high molecular weight conjugates. Blots were also probed with anti-PSTAIRE antibodies as a loading control. […] This effect is particularly pronounced in the insoluble fraction.\n(§2) To evaluate whether compound 8 can target p97 activity in cells, it was determined whether this compound induces accumulation of high molecular weight ubiquitin conjugates, since it is known that RNAi-mediated knockdown of p97 in mammalian cells has this effect (Wojcik, C. et al. J. Cell Sci. (2004) 117, 281-292). The proteasome inhibitor bortezomib (velcade) was employed as a positive control for this experiment. HeLa (FIG. 25) or RPMI8226 (FIG. 26) cells were treated with Velcade, compound 8, or a combination thereof for 1 h at 37° C. The cells were then harvested and cell lysates were immunoblotted with anti-ubiquitin antibodies to detect accumulation of high molecular weight conjugates. Blots were also probed with anti-PSTAIRE antibodies as a loading control."}, "RPMI8226 cells": {"system": "RPMI8226 cells", "test": "Accumulation of high molecular weight ubiquitin conjugates (anti-ubiquitin immunoblot), RPMI8226 cells", "format": "cell-based", "settings": "1 h at 37° C.", "excerpt": "as §1, §2"}, "[1]": {"system": "HeLa cell line that stably expresses UbG76V-GFP", "test": "Accumulation of UbG76V-GFP in HeLa cells (fluorescence microscopy)", "format": "cell-based", "settings": "1 h at 37° C., fluorescence microscopy", "description": "As a control, the same cells were treated with the proteasome inhibitor MG132. In the latter set of experiments, a HeLa cell line that stably expresses UbG76V-GFP was transfected with either wild type (WT), D1 mutant (E305Q), D2 mutant (E578Q) or E305Q, E578Q double mutant (QQ) murine 97-pcDNA4.1 plasmid (0.05 μg/100 μL) in a 96-well plate. After 23 h, the intensity of UbG76V-GFP signal was measured on a Molecular Devices ImageXpress automated fluorescence microscope. […] The direct accumulation of Ub-G76V-GFP caused by compound 2 at 25 μM is 4-fold less than that caused by MG132 at 2 μM. This is likely due to the fact that only fully folded Ub-G76V-GFP should require p97 for degradation by the proteasome.\nAs a second test of whether compound 8 can inhibit p97 in vivo, it was evaluated whether it can cause accumulation of the UbG76V-GFP reporter. A HeLa cell line that stably expresses UbG76V-GFP was treated with compound 8 for 1 h at 37° C., and was then evaluated by fluorescence microscopy. As a control, the same cells were treated with the proteasome inhibitor MG132. […] The level of GFP fluorescence was quantified in cells treated with compound 8 at different doses and for different periods of time (FIG. 28)."}, "Ub-G76V-GFP/HeLa cells": {"system": "Ub-G76V-GFP/HeLa cells", "test": "Degradation of pre-accumulated Ub-G76V-GFP (cycloheximide chase after MG132 washout)", "format": "cell-based", "settings": "for % K: relative to 0 μM", "description": "To evaluate this possibility, an assay was developed to determine the rate of degradation of pre-accumulated Ub-G76V-GFP molecules. […] Cells were then washed with PBS three times remove the MG132. Cells were then refreshed by adding DMEM containing cycloheximide (50 μg/mL; to block production of more Ub-G76V-GFP) and test compounds (0˜10 μM) were added into cells. Eight 96-well plates were prepared and one of the plates was imaged at 25, 50, 70, 100, 110, 125, 145, or 170 min after washing with PBS three times. After washing out MG132, degradation of pre-accumulated Ub-G76V-GFP appears to follow pseudo-first order reaction. Rate constant (K; 1/min) can be determined from the slope of plotting Ln (Fold Accumulation) versus Time (min) (see FIG. 17 and FIG. 18).\nUb-G76V-GFP/HeLa cells were treated with MG132 (2 μM) for 1 h and washed with PBS three times. DMEM containing cycloheximide (50 μg/mL) and compound 8 (0-10 μM) was added into cells. Eight 96-well plates were prepared and one of the plates was imaged at 25, 50, 70, 100, 110, 125, 145, or 170 min after washing with PBS three times."}, "[2]": {"system": "HEK293 cells that stably expressed TCR-GFP", "test": "Accumulation of ERAD reporter TCR-alpha-GFP", "format": "cell-based", "settings": "2 h at 37° C., fluorescence microscopy", "description": "Since p97 has a well-established role in ERAD, it was also determined whether compound 2 affects the accumulation of an ERAD-reporter, TCR-alpha-GFP. HEK293 cells that stably expressed TCR-GFP were treated with MG132 (see FIG. 19), compound 1 or compound 2 (FIG. 20) at the indicated concentrations for 2 h at 37° C. prior to being imaged by fluorescence microscopy to determine TCR-GFP accumulation. […] It was thus concluded that compound 2 inhibits p97 in cells, resulting in the accumulation of both soluble and insoluble high molecular weight ubiquitin conjugates and UPS substrates whose degradation depends upon p97.\nHEK293 cells that stably expressed TCR-GFP were treated with the Velcade (FIG. 30) or compound 8 (FIG. 31) at the indicated concentrations for 2 h at 37° C. prior to being imaged by fluorescence microscopy to quantify TCR-GFP accumulation."}, "MRC5-WT": {"system": "MRC5-WT", "test": "CellTiter-Glo growth inhibition, parental MRC5 cells", "format": "cell-based", "settings": "Homo sapiens, 48 h at 37° C., read-out: Cell line inhibition of growth GI50 MRC5-WT"}, "MRC5-SV40": {"system": "MRC5-SV40", "test": "CellTiter-Glo growth inhibition, MRC5 cells engineered to express SV40", "format": "cell-based"}, "wild type p97": {"target": "wild type p97 (Mus musculus, UniProt Q01853)", "sequence (Q01853 whole entry)": "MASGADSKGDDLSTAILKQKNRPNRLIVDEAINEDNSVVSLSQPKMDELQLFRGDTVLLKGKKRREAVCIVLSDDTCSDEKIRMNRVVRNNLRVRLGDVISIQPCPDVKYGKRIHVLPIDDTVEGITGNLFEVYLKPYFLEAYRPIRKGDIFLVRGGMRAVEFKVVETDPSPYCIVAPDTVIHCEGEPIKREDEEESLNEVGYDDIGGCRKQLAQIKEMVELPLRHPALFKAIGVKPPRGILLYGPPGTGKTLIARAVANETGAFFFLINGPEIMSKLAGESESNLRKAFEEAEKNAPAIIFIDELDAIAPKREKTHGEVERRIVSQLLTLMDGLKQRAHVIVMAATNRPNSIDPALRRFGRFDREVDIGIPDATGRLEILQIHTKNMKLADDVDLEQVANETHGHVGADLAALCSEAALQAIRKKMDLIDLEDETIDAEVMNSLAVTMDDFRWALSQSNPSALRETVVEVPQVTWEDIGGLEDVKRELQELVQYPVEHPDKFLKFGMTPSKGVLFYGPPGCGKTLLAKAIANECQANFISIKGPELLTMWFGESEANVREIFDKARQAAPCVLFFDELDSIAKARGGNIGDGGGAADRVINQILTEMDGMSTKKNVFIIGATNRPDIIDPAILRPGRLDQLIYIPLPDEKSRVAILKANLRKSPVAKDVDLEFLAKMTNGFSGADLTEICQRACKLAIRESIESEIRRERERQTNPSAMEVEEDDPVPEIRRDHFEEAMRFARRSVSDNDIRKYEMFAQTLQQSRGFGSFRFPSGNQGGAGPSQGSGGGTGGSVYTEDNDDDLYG", "test": "ATP Kinase glo assay of p97 ATPase activity", "format": "biochemical", "description": "An assay that measures the ATPase activity of p97 and that is amenable to high-throughput screening (HTS) was developed based on the commercially-available “Kinase-Glo” assay format, wherein the ATP hydrolytic activity of p97 is monitored by using luciferase to measure the level of residual ATP in a sample following incubation with p97. Using this assay, circa 16,000 compounds were screened to evaluate their effect on the ATP hydrolysis activity of p97. This effort yielded several candidates that inhibit p97 activity. Among the compounds that were identified, one that was of particular interest was compound 8 (9-(2-nitrovinyl) anthracene shown below:\nIt was shown that a key feature of compound 8 is that its mode of inhibition is dependent upon the presence of a cysteine at position 522 in the D2 domain of p97."}}}
{"smiles": "O=[N+]([O-])C=Cc1c2ccccc2cc2ccccc12", "note": "[Compound 8, 9-(2-nitrovinyl) anthracene]", "values": [{"measurement": "accumulation of high molecular weight ubiquitin conjugates, HeLa cells", "setting": "HeLa cells", "result": "caused accumulation of high molecular weight ubiquitin conjugates"}, {"measurement": "accumulation of high molecular weight ubiquitin conjugates, RPMI8226 cells", "setting": "RPMI8226 cells", "result": "caused accumulation of high molecular weight ubiquitin conjugates"}, {"measurement": "accumulation of UbG76V-GFP", "setting": "[1]", "result": "caused detectable accumulation of UbG76V-GFP"}, {"measurement": "K, rate constant of Ub-G76V-GFP degradation", "setting": "Ub-G76V-GFP/HeLa cells; 0.01 μM", "result": 0.034, "unit": "min⁻¹"}, {"measurement": "% K", "setting": "Ub-G76V-GFP/HeLa cells; 0.01 μM", "result": 89, "unit": "%"}, {"measurement": "K, rate constant of Ub-G76V-GFP degradation", "setting": "Ub-G76V-GFP/HeLa cells; 0.04 μM", "result": 0.033, "unit": "min⁻¹"}, {"measurement": "% K", "setting": "Ub-G76V-GFP/HeLa cells; 0.04 μM", "result": 87, "unit": "%"}, {"measurement": "K, rate constant of Ub-G76V-GFP degradation", "setting": "Ub-G76V-GFP/HeLa cells; 0.16 μM", "result": 0.032, "unit": "min⁻¹"}, {"measurement": "% K", "setting": "Ub-G76V-GFP/HeLa cells; 0.16 μM", "result": 85, "unit": "%"}, {"measurement": "K, rate constant of Ub-G76V-GFP degradation", "setting": "Ub-G76V-GFP/HeLa cells; 0.63 μM", "result": 0.031, "unit": "min⁻¹"}, {"measurement": "% K", "setting": "Ub-G76V-GFP/HeLa cells; 0.63 μM", "result": 81, "unit": "%"}, {"measurement": "K, rate constant of Ub-G76V-GFP degradation", "setting": "Ub-G76V-GFP/HeLa cells; 2.5 μM", "result": 0.027, "unit": "min⁻¹"}, {"measurement": "% K", "setting": "Ub-G76V-GFP/HeLa cells; 2.5 μM", "result": 71, "unit": "%"}, {"measurement": "K, rate constant of Ub-G76V-GFP degradation", "setting": "Ub-G76V-GFP/HeLa cells; 10 μM", "result": 0.023, "unit": "min⁻¹"}, {"measurement": "% K", "setting": "Ub-G76V-GFP/HeLa cells; 10 μM", "result": 60, "unit": "%"}, {"measurement": "IC50", "setting": "Ub-G76V-GFP/HeLa cells; Homo sapiens, HeLa, 1 h, read-out: IC50 on the decay of Ub-G76V-GFP", "result": "10 ± 4", "unit": "µM"}, {"measurement": "accumulation of TCR-alpha-GFP", "setting": "[2]", "result": "induced accumulation of the ERAD reporter, TCR-alpha-GFP"}, {"measurement": "GI50", "setting": "MRC5-WT", "result": "17 ± 9", "unit": "µM"}, {"measurement": "GI50", "setting": "MRC5-SV40; Homo sapiens, MRC5, 48 h at 37° C., CellTiter-Glo, read-out: Cell line inhibition of growth GI50 MRC5-SV40", "result": "5 ± 3", "unit": "µM"}, {"measurement": "greater sensitivity of SV40-transformed cells than WT cell line", "setting": "MRC5-SV40; MRC5-SV40 vs MRC5-WT GI50", "result": 3.4, "unit": "fold"}, {"measurement": "inhibition of wild type p97 compared with the C522A-p97 mutant", "setting": "wild type p97", "result": "significantly greater degree"}]}
